In patent US9907800B2, “Kinase inhibitors and method of treating cancer” (University Health Network, priority 2010, dated 2018):
Where a name gives a salt, the structure may show the parent alone. Read-outs that look alike come from different tables or passages of the source.

Legend:
human PLK4 = human PLK4 (Homo sapiens (Human), UniProt O00444); assay: PLK4 inhibition assay (indirect ELISA); type: biochemical
Aurora B = Aurora B (Homo sapiens (Human), UniProt Q96GD4); assay: Aurora B inhibition assay (Z-Lyte); type: biochemical; conditions: read-out: Aurora B IC50 Ranges
Aurora B, sequence (Q96GD4 whole entry): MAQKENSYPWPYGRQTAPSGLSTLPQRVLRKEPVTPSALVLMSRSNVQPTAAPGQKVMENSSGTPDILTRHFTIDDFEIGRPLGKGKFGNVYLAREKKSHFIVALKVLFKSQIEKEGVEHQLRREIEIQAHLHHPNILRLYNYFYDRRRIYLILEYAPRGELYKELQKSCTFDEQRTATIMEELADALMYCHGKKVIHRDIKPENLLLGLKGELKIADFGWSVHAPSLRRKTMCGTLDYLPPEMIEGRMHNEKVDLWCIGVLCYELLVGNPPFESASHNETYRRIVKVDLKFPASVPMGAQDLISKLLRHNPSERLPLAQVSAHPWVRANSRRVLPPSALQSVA

human PLK4, sequence (O00444 1-391): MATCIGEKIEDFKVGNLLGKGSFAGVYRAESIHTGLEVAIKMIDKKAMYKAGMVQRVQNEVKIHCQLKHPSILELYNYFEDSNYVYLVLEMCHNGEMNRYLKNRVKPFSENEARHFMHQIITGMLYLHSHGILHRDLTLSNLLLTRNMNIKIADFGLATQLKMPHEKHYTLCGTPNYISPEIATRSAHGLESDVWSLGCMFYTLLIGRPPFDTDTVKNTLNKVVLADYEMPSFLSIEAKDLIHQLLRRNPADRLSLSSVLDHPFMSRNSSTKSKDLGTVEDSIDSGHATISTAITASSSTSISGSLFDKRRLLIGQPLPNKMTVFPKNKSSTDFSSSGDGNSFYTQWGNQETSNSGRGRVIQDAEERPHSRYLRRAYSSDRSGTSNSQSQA

IC50 (Aurora B) | IC50 (human PLK4; read-out: PLK4 IC50 Ranges) | Compound | IC50 (human PLK4)
< 100 nM | < 100 nM | O=C1Nc2ccccc2[C@]12C[C@H]2c1ccc2c(/C=C/c3cc(F)c(CN4CCOCC4)c(F)c3)n[nH]c2c1 [Example A116, (1R,2S)-(E)-2-(3-(3,5-difluoro-4-(morpholinomethyl)styryl)-1H-indazol-6-yl)spiro[cyclopropane-1,3′-indolin]-2′-one 2,2,2-trifluoroacetate] | –
100 to 1000 nM | < 100 nM | CN1CCN(c2ccc(-c3n[nH]c4cc([C@@H]5C[C@@]56C(=O)Nc5ccc(N)cc56)ccc34)cc2)CC1 (relative stereo) [Example A86, (1R*,2S*)-5′-amino-2-(3-(4-(4-methylpiperazin-1-yl)phenyl)-1H-indazol-6-yl)spiro[cyclopropane-1,3′-indolin]-2′-one] | –
– | < 100 nM | O=C1Nc2ccccc2[C@]12C[C@H]2c1ccc2c(/C=C/c3ccc4c(c3)CNCCO4)n[nH]c2c1 [Example A113, (1R,2S)-2-(3-((E)-2-(2,3,4,5-tetrahydrobenzo[f][1,4]oxazepin-7-yl)vinyl)-1H-indazol-6-yl)spiro[cyclopropane-1,3′-indolin]-2′-one 2,2,2-trifluoroacetate] | –
< 100 nM | < 100 nM | Cc1ccc2c(c1)[C@]1(C[C@H]1c1ccc3c(-c4ccc(N5CCN(C)CC5)cc4)n[nH]c3c1)C(=O)N2 (relative stereo) [Example A173, (1R*,2S)-5′-methyl-2-(3-(4-(4-methylpiperazin-1-yl)phenyl)-1H-indazol-6-yl)spiro[cyclopropane-1,3′-indolin]-2′-one 2,2,2-trifluoroacetate] | –
– | 100 to 1000 nM | CN1C(=O)[C@@]2(C[C@H]2c2ccc3c(-c4ccc(N5CCNCC5)cc4)n[nH]c3c2)c2ccccc21 (relative stereo) [Example A88, (1R*,2S*)-1′-methyl-2-(3-(4-(piperazin-1-yl)phenyl)-1H-indazol-6-yl)spiro[cyclopropane-1,3′-indolin]-2′-one 2,2,2-trifluoroacetate] | –
– | < 100 nM | C/C(=C\c1ccc(CN2CCOCC2)cc1)c1n[nH]c2cc([C@@H]3C[C@@]34C(=O)Nc3ccccc34)ccc12 [Example A114, (1R,2S)-2-(3-((E)-1-(4-(morpholinomethyl)phenyl)prop-1-en-2-yl)-1H-indazol-6-yl)spiro[cyclopropane-1,3′-indolin]-2′-one 2,2,2-trifluoroacetate] | –
– | < 100 nM | CN1C(=O)[C@@]2(C[C@H]2c2ccc3c(/C=C/c4ccc(CN5CCCC5)cc4)n[nH]c3c2)c2ccccc21 [Example A115, (1R,2S)-(E)-1′-methyl-2-(3-(4-(pyrrolidin-1-ylmethyl)styryl)-1H-indazol-6-yl)spiro[cyclopropane-1,3′-indolin]-2′-one 2,2,2-trifluoroacetate] | –
< 100 nM | – | COc1ccc2c(c1)[C@]1(C[C@H]1c1ccc3c(/C=C/c4ccc(CN5CCOCC5)cc4)n[nH]c3c1)C(=O)N2C [Example A102, (1R,2S)-(E)-5′-methoxy-1′-methyl-2-(3-(4-(morpholinomethyl)styryl)-1H-indazol-6-yl)spiro[cyclopropane-1,3′-indolin]-2′-one hydrochloride] | –
100 to 1000 nM | – | O=C1Nc2ccccc2[C@]12C[C@H]2c1ccc2c(I)n[nH]c2c1 [Example A10, (1R,2S)-2-(3-iodo-1H-indazol-6-yl)spiro[cyclopropane-1,3′-indolin]-2′-one] | –
– | > 1000 nM | COc1cc2c(cc1OC)[C@]1(C[C@H]1c1ccc3c(-c4cccc(CN5CCOCC5)c4)n[nH]c3c1)C(=O)N2 (relative stereo) [Example A143, (1R*,2S*)-5′,6′-dimethoxy-2-(3-(3-(morpholinomethyl)phenyl)-1H-indazol-6-yl)spiro[cyclopropane-1,3′-indolin]-2′-one 2,2,2-trifluoroacetate] | –
100 to 1000 nM | – | O=C1Nc2ccccc2[C@]12C[C@H]2c1ccc2c(I)n[nH]c2c1 (relative stereo) [Example A9, (1R*,2S*)-2-(3-iodo-1H-indazol-6-yl)spiro[cyclopropane-1,3′-indolin]-2′-one] | –

Further lines, the compound ahead of its results:

Compound | IC50 (Aurora B) | IC50 (human PLK4; read-out: PLK4 IC50 Ranges) | IC50 (human PLK4)
COc1ccc2c(c1)[C@]1(C[C@H]1c1ccc3c(-c4ccc(N5CCNCC5)cc4)n[nH]c3c1)C(=O)N2 (relative stereo) [Example A48, (1R*,2S*)-5′-methoxy-2-(3-(4-(piperazin-1-yl)phenyl)-1H-indazol-6-yl)spiro[cyclopropane-1,3′-indolin]-2′-one 2,2,2-trifluoroacetate] | < 100 nM | – | < 100 nM
COc1ccc2c(c1)[C@@]1(C[C@@H]1c1ccc3c(-c4ccc(N5CCN(C)CC5)nc4)n[nH]c3c1)C(=O)N2 [Example A15, (1S,2R)-5′-methoxy-2-(3-(6-(4-methylpiperazin-1-yl)pyridin-3-yl)-1H-indazol-6-yl)spiro[cyclopropane-1,3′-indolin]-2′-one] | > 1000 nM | < 100 nM | –
CN1CCc2ccc(/C=C/c3n[nH]c4cc([C@@H]5C[C@@]56C(=O)Nc5ccccc56)ccc34)cc2C1 [Example A65, (1R,2S)-2-(3-((E)-2-(2-methyl-1,2,3,4-tetrahydroisoquinolin-7-yl)vinyl)-1H-indazol-6-yl)spiro[cyclopropane-1,3′-indolin]-2′-one 2,2,2-trifluoroacetate salt] | < 100 nM | < 100 nM | –
COc1ccc2c(c1)[C@]1(C[C@H]1c1ccc3c(-c4ccc(C5(F)CCN(C)CC5)cc4)n[nH]c3c1)C(=O)N2 [Example A124, (1R,2S)-2-(3-(4-(4-fluoro-1-methylpiperidin-4-yl)phenyl)-1H-indazol-6-yl)-5′-methoxyspiro[cyclopropane-1,3′-indolin]-2′-one 2,2,2-trifluoroacetate] | – | < 100 nM | –
COc1ccc2c(c1)[C@]1(C[C@H]1c1ccc3c(/C=C/c4ccc5c(c4)CCN(C)C5)n[nH]c3c1)C(=O)N2 [Example A75, (1R,2S)-5′-methoxy-2-(3-((E)-2-(2-methyl-1,2,3,4-tetrahydroisoquinolin-6-yl)vinyl)-1H-indazol-6-yl)spiro[cyclopropane-1,3′-indolin]-2′-one 2,2,2-trifluoroacetate salt] | < 100 nM | < 100 nM | –
COc1ccc2c(c1)[C@]1(C[C@H]1c1ccc3c(-c4cccc(CCO)c4)n[nH]c3c1)C(=O)N2 (relative stereo) [Example A46, (1R*,2S*)-2-(3-(3-(2-hydroxyethyl)phenyl)-1H-indazol-6-yl)-5′-methoxy spiro[cyclopropane-1,3′-indolin]-2′-one] | – | < 100 nM | –
COc1ccc2c(c1)[C@]1(C[C@H]1c1ccc3c(/C=C/c4cccnc4)n[nH]c3c1)C(=O)N2 [Example A197, (1R,2S)-5′-methoxy-2-(3-((E)-2-(pyridin-3-yl)vinyl)-1H-indazol-6-yl)spiro[cyclopropane-1,3′-indolin]-2′-one] | < 100 nM | < 100 nM | –
COc1ccc2c(c1)[C@@]1(C[C@@H]1c1ccc3c(-c4ccc(N5CCNCC5)cc4)n[nH]c3c1)C(=O)N2 [Example A50, (1S,2R)-5′-methoxy-2-(3-(4-(piperazin-1-yl)phenyl)-1H-indazol-6-yl)spiro[cyclopropane-1,3′-indolin]-2′-one 2,2,2-trifluoroacetate] | < 100 nM | < 100 nM | –
COc1cc2c(cc1OC)[C@]1(C[C@H]1c1ccc3c(-c4ccc(N5CCN(C)CC5)cc4)n[nH]c3c1)C(=O)N2 (relative stereo) [Example A144, (1R*,2S*)-5′,6′-dimethoxy-2-(3-(4-(4-methylpiperazin-1-yl)phenyl)-1H-indazol-6-yl)spiro[cyclopropane-1,3′-indolin]-2′-one 2,2,2-trifluoroacetate] | – | 100 to 1000 nM | –
O=C1Nc2ccccc2[C@]12C[C@H]2c1ccc2c(/C=C/c3ccc(CCN4CCOCC4)cc3)n[nH]c2c1 [Example A205, (1R,2S)-(E)-2-(3-(4-(2-morpholinoethyl)styryl)-1H-indazol-6-yl)spiro[cyclopropane-1,3′-indolin]-2′-one 2,2,2-trifluoroacetate] | < 100 nM | < 100 nM | –
COc1ccc2c(c1)[C@]1(C[C@H]1c1ccc3c(-c4ccc(N5CCN(C6CCCCC6)CC5)cc4)n[nH]c3c1)C(=O)N2 [Example A193, (1R,2S)-2-(3-(4-(4-cyclohexylpiperazin-1-yl)phenyl)-1H-indazol-6-yl)-5′-methoxyspiro[cyclopropane-1,3′-indolin]-2′-one 2,2,2-trifluoroacetate] | < 100 nM | < 100 nM | –
COc1ccc2c(c1)[C@]1(C[C@H]1c1ccc3c(-c4csc(CN5CCOCC5)c4)n[nH]c3c1)C(=O)N2 [Example A125, (1R,2S)-5′-methoxy-2-(3-(5-(morpholinomethyl)thiophen-3-yl)-1H-indazol-6-yl)spiro[cyclopropane-1,3′-indolin]-2′-one 2,2,2-trifluoroacetate] | – | < 100 nM | –
COc1ccc2c(c1)[C@]1(C[C@H]1c1ccc3c(/C=C/c4ccc(CCN5CCOCC5)cc4)n[nH]c3c1)C(=O)N2 [Example A177, (1R,2S)-(E)-5′-methoxy-2-(3-(4-(2-morpholinoethyl)styryl)-1H-indazol-6-yl)spiro[cyclopropane-1,3′-indolin]-2′-one 2,2,2-trifluoroacetate] | < 100 nM | – | –
O=C1Nc2ccccc2[C@]12C[C@H]2c1ccc2[nH]ncc2c1 (relative stereo) [Example A1, (1R*,2S*)-2-(1H-indazol-5-yl)spiro[cyclopropane-1,3′-indolin]-2′-one] | – | > 1000 nM | –
COc1ccc2c(c1)[C@@]1(C[C@@H]1c1ccc3c(I)n[nH]c3c1)C(=O)N2 [Example A8, (1S,2R)-2-(3-iodo-1H-indazol-6-yl)-5′-methoxyspiro[cyclopropane-1,3′-indolin]-2′-one] | – | > 1000 nM | –
O=C1Nc2ccccc2[C@]12C[C@H]2c1ccc2c(/C=C/c3csc(CN4CCOCC4)n3)n[nH]c2c1 [Example A77, (1R,2S)-2-(3-((E)-2-(2-(morpholinomethyl)thiazol-4-yl)vinyl)-1H-indazol-6-yl)spiro[cyclopropane-1,3′-indolin]-2′-one 2,2,2-trifluoroacetate salt] | – | < 100 nM | –
